Test [1] deals with T1, Neuropeptides B/W receptor type 1 (Homo sapiens, UniProt P48145).
T1 sequence (P48145 whole entry): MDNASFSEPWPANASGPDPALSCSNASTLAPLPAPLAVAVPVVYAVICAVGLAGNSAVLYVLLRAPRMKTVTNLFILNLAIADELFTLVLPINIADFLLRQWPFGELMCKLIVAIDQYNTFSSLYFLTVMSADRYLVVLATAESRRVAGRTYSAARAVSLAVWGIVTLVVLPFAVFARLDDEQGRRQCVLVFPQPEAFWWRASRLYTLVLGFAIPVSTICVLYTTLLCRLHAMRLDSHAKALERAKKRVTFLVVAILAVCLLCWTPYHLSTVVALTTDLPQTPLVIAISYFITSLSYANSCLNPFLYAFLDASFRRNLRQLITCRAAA
Kind of test: human NPBW1 receptor blockade, IC50 – cell-based, fluorescence, dose response, set 6, late-stage follow-up (AID 588583). In kind it is functional.

In test [2] the target is Melanin-concentrating hormone receptor 1 (Homo sapiens, UniProt Q99705). Kind of test: Late-stage fluorescence-based counterscreen for antagonists of the G-protein coupled receptor 7 (GPR7): cell-based dose response assay to identify antagonists of the melanin-concentrating hormone receptor 1 (MCHR1) Set 6. Type of test: functional. (In general: A counterscreen serves to expose hits that act by an unwanted route or on another target.)

Test [3] deals with DNA dC->dU-editing enzyme APOBEC-3A (Homo sapiens, UniProt P31941). Kind of test: SAR analysis of small molecule inhibitors of APOBEC3A DNA Deaminase via a fluorescence-based single-stranded DNA deaminase assay - Set 2. In kind it is functional. The conditions noted are these: read-out: IC50_Mean.
For test [4], the target named is DNA dC->dU-editing enzyme APOBEC-3G (Homo sapiens, UniProt Q9HC16). Kind of test: SAR analysis of small molecule inhibitors of APOBEC3G DNA Deaminase via a fluorescence-based single-stranded DNA deaminase assay - Set 2. In kind it is functional. The conditions noted are these: read-out: IC50_Mean.
Test [5] addresses 5'-AMP-activated protein kinase catalytic subunit alpha-1 (Homo sapiens, UniProt Q13131). Type of test: functional.
Test [6] deals with Cyclin-dependent kinase 8 (Homo sapiens, UniProt P49336). Kind of test: Navigating the Kinome. Panel member name: CDK8. In kind it is functional.
In test [7] the target is cAMP-dependent protein kinase catalytic subunit PRKX (Homo sapiens, UniProt P51817). In kind it is functional.
Test [8] deals with Dual specificity tyrosine-phosphorylation-regulated kinase 1B (Homo sapiens, UniProt Q9Y463). Briefly: Navigating the Kinome. Panel member name: DYRK1B. In kind it is functional.
Another test concerns the target Activin receptor type-1 (Homo sapiens, UniProt Q04771). Briefly: Navigating the Kinome. Panel member name: ACVR1. In kind it is functional.
Test [9] has as its target Vascular endothelial growth factor receptor 1 (Homo sapiens, UniProt P17948). In kind it is functional.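 Also: measured within a kinome-wide profiling panel, FLT1 as the panel member.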
Test [10] has as its target Dual specificity mitogen-activated protein kinase kinase 1 (Homo sapiens, UniProt Q02750). Briefly: Navigating the Kinome. Panel member name: MAP2K1. In kind it is functional.
In test [11] the target is Proto-oncogene tyrosine-protein kinase receptor Ret (Homo sapiens, UniProt P07949). In kind it is functional.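 Also: measured within a kinome-wide profiling panel, RET as the panel member.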
The target in test [12] is Casein kinase I isoform alpha (Homo sapiens, UniProt P48729). In kind it is functional.
Test [13] concerns the target Serine/threonine-protein kinase pim-1 (Homo sapiens, UniProt P11309). In kind it is functional.
Test [14] addresses Mast/stem cell growth factor receptor Kit (Homo sapiens, UniProt P10721). In kind it is functional.
The target in test [15] is Dual specificity protein kinase CLK4 (Homo sapiens, UniProt Q9HAZ1). In kind it is functional.
In test [16] the target is Mitogen-activated protein kinase 10 (Homo sapiens, UniProt P53779). Kind of test: Navigating the Kinome. Panel member name: MAPK10. In kind it is functional.
The target in test [17] is Ribosomal protein S6 kinase alpha-3 (Homo sapiens, UniProt P51812). In kind it is functional.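 Also: measured within a kinome-wide profiling panel.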
Test [18] has as its target Fibroblast growth factor receptor 1 (Homo sapiens, UniProt P11362). In kind it is functional.
In another test the target is Activated CDC42 kinase 1 (Homo sapiens, UniProt Q07912). Kind of test: Navigating the Kinome. Panel member name: ACK1. Type of test: functional.
Test [19] addresses ALK tyrosine kinase receptor (Homo sapiens, UniProt Q9UM73). In kind it is functional.
The target in test [20] is Inhibitor of nuclear factor kappa-B kinase subunit epsilon (Homo sapiens, UniProt Q14164). Briefly: Navigating the Kinome. Panel member name: IKBKE. In kind it is functional.
The target in test [21] is Mitogen-activated protein kinase kinase kinase kinase 4 (Homo sapiens, UniProt O95819). Type of test: functional.
Test [22] addresses Tyrosine-protein kinase JAK2 (Homo sapiens, UniProt O60674). Type of test: functional.
Test [23] concerns the target G protein-coupled receptor kinase 5 (Homo sapiens, UniProt P34947). Kind of test: Navigating the Kinome. Panel member name: GPRK5. Type of test: functional.
In test [24] the target is Leukocyte tyrosine kinase receptor (Homo sapiens, UniProt P29376). Briefly: Navigating the Kinome. Panel member name: LTK. Type of test: functional.
For test [25], the target named is Serine/threonine-protein kinase TAO1 (Homo sapiens, UniProt Q7L7X3). Type of test: functional.
In test [26] the target is Dual specificity protein kinase CLK2 (Homo sapiens, UniProt P49760). In kind it is functional.
Test [27] deals with Tyrosine-protein kinase JAK3 (Homo sapiens, UniProt P52333). Type of test: functional.
Test [28] addresses Vascular endothelial growth factor receptor 2 (Homo sapiens, UniProt P35968). Type of test: functional.
Test [29] concerns the target Rho-associated protein kinase 1 (Homo sapiens, UniProt Q13464). Type of test: functional.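 Also: measured within a broad kinome-wide panel profiling many kinases.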
Test [30] deals with Leucine-rich repeat serine/threonine-protein kinase 2 (Homo sapiens, UniProt Q5S007). In kind it is functional.
The target of test [31] is Dual specificity tyrosine-phosphorylation-regulated kinase 1A (Homo sapiens, UniProt Q13627). Type of test: functional.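 Also: measured against DYRK1A as one member of a broad kinome profiling panel.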
In test [32] the target is MAP/microtubule affinity-regulating kinase 3 (Homo sapiens, UniProt P27448). In kind it is functional.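 Also: MARK3 affinity measured as one member of a kinome panel.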
For test [33], the target named is Macrophage-stimulating protein receptor (Homo sapiens, UniProt Q04912). Briefly: Navigating the Kinome. Panel member name: MST1R. Type of test: functional.
For test [34], the target named is Tyrosine-protein kinase receptor TYRO3 (Homo sapiens, UniProt Q06418). In kind it is functional.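 Also: TYRO3 value obtained as one member of a kinome-wide profiling panel.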
For test [35], the target named is Glycogen synthase kinase-3 alpha (Homo sapiens, UniProt P49840). Kind of test: GSK3A enzyme blockers, homolog specificity check – biochemical, microfluidics, dry powder samples, set 2, selectivity assay for GSK3beta inhibitor project, dose response (AID 623978). Type of test: functional.
Test [36] deals with Glycogen synthase kinase-3 beta (Homo sapiens, UniProt P49841). Briefly: inhibition of human GSK3B activity – biochemical, microfluidics, dry powder samples, set 2, dose response (AID 623989). In kind it is functional.
The nature of test [37]: general mammalian cell viability loss – inhibitor set, cherry-pick, set 2, cytotoxicity control for miR-122 modulator project, dose response (AID 720697). In kind it is functional, cell-based.
Test [38] is described as follows: Vero cell viability loss – purified and synthesized compounds, set 6, cytotoxicity control for M. tuberculosis inhibitor project, dose response (AID 588445). The note with it: Mycobacterium tuberculosis. In kind it is functional.
The nature of test [39]: A High Throughput Confirmatory Assay used to Identify Novel Compounds that Inhibit Mycobacterium Tuberculosis in the absence of Glycerol using Purified and Synthesized Compounds (3). In kind it is functional.
The nature of test [40]: HepG2 cell cytotoxicity, cytotoxicity control, set 5 (AID 588441). In kind it is functional. The conditions noted are these: Mycobacterium tuberculosis.
The nature of test [41]: THP-1 cell cytotoxicity, cytotoxicity control, set 5 (AID 588443). Type of test: functional.

Experimental findings from ChEMBL document CHEMBL1201862, “PubChem BioAssay data set” (2004) are described below.

The source made the active and inactive calls.

Sequence of Glycogen synthase kinase-3 alpha (P49840 whole entry): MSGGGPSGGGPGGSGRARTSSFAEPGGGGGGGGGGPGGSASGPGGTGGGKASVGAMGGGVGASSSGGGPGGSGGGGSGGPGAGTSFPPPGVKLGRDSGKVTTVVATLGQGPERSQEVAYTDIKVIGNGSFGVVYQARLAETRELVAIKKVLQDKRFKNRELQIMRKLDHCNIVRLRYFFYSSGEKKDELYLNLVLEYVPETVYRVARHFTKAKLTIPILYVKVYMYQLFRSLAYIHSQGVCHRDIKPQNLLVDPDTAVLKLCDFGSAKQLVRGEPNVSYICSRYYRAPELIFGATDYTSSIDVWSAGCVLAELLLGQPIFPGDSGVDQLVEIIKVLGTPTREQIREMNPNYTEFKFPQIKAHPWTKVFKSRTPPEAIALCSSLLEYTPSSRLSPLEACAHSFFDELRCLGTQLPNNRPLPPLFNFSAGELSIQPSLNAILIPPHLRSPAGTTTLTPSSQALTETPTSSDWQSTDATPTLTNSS
Sequence of Dual specificity tyrosine-phosphorylation-regulated kinase 1B (Q9Y463 whole entry): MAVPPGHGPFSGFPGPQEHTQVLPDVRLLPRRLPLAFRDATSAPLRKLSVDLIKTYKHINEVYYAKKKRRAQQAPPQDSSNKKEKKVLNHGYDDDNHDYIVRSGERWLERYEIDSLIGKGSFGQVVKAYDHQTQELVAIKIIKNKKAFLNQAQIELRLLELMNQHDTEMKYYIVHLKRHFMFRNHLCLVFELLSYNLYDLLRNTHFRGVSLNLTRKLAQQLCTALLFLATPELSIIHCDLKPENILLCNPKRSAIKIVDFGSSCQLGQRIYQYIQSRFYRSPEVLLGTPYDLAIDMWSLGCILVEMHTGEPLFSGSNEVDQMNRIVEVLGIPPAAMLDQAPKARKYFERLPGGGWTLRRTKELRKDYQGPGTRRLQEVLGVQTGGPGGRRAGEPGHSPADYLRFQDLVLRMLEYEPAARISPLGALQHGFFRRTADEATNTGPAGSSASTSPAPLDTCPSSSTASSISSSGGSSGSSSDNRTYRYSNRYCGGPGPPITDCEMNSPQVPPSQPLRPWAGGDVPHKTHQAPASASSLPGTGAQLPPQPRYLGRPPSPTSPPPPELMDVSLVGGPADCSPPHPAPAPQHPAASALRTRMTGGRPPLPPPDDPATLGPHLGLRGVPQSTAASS
Sequence of Activin receptor type-1 (Q04771 whole entry): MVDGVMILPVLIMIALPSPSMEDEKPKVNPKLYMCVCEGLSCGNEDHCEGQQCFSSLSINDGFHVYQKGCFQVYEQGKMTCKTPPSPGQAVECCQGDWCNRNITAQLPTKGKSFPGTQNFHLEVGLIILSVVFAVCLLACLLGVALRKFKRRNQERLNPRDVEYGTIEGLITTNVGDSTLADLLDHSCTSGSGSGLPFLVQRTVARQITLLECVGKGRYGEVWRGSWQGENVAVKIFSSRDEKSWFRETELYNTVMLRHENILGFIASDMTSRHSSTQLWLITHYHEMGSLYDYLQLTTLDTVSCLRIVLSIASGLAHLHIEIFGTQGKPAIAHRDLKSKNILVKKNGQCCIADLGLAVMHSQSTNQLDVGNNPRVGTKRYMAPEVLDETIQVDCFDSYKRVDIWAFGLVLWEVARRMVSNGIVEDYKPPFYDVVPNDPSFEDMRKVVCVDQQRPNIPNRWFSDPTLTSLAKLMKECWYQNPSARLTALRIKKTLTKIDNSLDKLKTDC
Sequence of Vascular endothelial growth factor receptor 2 (P35968 whole entry): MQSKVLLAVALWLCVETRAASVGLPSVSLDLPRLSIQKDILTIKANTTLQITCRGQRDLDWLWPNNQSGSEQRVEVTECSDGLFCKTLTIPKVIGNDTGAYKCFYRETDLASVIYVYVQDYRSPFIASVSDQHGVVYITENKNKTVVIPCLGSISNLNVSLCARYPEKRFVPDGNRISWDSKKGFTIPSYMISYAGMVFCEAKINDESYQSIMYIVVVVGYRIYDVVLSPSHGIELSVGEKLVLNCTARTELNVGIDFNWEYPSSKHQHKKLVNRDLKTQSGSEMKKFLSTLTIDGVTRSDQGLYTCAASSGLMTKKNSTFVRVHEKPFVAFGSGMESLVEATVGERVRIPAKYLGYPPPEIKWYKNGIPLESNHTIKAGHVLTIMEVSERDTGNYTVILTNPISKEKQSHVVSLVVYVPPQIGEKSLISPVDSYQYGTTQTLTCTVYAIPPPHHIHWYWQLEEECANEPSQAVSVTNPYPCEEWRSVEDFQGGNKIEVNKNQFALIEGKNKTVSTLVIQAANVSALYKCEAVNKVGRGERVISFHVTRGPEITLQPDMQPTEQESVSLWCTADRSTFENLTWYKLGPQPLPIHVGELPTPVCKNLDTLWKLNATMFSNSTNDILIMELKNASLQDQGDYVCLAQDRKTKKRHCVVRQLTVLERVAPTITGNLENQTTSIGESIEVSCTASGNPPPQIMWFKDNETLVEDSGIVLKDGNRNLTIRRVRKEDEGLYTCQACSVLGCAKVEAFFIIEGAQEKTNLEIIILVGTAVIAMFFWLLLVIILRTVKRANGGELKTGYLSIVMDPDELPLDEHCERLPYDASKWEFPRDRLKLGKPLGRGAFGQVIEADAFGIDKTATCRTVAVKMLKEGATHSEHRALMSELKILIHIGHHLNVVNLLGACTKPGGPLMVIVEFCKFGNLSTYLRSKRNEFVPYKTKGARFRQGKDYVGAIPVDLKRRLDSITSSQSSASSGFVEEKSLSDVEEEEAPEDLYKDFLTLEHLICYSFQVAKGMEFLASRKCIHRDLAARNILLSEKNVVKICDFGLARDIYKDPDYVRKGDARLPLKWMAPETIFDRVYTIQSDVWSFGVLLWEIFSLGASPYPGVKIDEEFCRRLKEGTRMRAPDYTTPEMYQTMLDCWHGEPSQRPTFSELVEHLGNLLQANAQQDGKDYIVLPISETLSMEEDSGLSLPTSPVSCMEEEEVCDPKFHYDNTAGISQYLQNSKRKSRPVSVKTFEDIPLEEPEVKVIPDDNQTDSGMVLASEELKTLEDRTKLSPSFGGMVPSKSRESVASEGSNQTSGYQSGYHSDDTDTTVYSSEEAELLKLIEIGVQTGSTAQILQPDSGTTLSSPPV
Sequence of Ribosomal protein S6 kinase alpha-3 (P51812 whole entry): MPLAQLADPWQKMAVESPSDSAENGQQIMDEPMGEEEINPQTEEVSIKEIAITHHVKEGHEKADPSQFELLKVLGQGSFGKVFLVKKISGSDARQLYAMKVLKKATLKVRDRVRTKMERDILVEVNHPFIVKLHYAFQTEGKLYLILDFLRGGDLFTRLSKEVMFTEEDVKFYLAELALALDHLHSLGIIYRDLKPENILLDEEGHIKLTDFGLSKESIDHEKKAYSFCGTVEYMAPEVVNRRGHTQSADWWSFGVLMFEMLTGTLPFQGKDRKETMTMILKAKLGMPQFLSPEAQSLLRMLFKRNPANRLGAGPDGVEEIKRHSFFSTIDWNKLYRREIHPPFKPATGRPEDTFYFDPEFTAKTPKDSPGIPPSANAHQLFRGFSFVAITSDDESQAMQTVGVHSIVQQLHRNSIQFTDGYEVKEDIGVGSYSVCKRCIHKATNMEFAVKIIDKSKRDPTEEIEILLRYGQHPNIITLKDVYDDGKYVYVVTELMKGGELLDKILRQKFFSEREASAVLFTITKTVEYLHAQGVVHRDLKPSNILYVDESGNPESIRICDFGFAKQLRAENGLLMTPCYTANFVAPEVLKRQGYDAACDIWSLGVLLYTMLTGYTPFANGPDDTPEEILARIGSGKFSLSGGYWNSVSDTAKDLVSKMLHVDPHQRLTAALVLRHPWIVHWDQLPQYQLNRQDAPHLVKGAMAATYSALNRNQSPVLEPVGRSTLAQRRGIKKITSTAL
Sequence of Serine/threonine-protein kinase TAO1 (Q7L7X3 whole entry): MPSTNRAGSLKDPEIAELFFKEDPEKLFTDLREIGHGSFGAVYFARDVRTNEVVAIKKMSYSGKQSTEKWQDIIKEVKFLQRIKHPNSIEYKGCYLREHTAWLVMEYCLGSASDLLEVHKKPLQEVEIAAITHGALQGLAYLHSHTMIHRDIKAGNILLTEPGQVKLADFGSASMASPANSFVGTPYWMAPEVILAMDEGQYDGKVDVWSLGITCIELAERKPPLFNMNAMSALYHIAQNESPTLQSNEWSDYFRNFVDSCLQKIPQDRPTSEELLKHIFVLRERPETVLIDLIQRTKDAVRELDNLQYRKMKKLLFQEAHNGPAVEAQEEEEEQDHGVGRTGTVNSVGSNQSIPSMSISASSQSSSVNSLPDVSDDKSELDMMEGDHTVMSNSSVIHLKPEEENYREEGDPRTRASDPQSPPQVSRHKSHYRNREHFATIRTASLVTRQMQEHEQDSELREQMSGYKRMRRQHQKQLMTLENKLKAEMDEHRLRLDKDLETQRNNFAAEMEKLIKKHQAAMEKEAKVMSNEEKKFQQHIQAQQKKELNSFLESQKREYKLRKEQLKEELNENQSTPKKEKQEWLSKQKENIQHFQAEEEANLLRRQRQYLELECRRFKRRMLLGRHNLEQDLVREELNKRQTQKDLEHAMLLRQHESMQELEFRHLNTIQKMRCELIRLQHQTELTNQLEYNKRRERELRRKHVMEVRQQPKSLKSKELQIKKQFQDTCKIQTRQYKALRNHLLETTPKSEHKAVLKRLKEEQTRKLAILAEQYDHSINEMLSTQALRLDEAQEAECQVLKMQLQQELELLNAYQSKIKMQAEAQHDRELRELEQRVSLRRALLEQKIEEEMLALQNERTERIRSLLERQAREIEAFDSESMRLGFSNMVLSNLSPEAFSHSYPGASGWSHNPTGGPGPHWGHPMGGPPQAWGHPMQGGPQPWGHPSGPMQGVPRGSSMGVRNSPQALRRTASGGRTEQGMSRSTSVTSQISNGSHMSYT
Sequence of Casein kinase I isoform alpha (P48729 whole entry, canonical isoform): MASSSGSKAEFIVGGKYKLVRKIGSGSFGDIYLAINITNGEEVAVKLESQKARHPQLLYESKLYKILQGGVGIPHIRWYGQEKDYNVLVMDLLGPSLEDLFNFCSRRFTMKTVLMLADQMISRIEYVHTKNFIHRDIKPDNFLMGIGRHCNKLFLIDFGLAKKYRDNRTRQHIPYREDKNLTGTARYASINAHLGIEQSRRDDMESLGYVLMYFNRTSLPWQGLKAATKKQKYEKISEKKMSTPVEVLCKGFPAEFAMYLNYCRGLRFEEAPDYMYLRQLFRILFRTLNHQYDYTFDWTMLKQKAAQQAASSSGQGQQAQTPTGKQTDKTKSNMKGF

Turning to `N#CC(c1ccc2c(c1)OCO2)c1c(Cl)cnn(Cc2cccc3ccccc23)c1=O` (stereo not drawn), the IC50 in [1] and in test [2] was 0.41 µM (active) in each case.
Turning to `CCCn1c(=O)c2ccccc2n2c(SC)nnc12`, the IC50 in test [3] and in test [4] was > 99 µM (inactive) in each case.
By Ki is commonly meant the equilibrium dissociation constant of an inhibitor or competing ligand from its target. In the case of `O=C(Nc1cccc(C(F)(F)F)n1)Nc1ccnc2ccc(F)cc12`, the Ki is > 3.16 µM (inactive) in test [5]; 0.0794 µM (active) in test [6]; > 3.16 µM (inactive) in test [7]; 2 µM (active) in [8]; 1.58 µM (active) on Activin receptor type-1; > 3.98 µM (inactive) in test [9]. For the same molecule, the Ki in test [10] was > 3.16 µM (inactive); in test [11], > 3.16 µM (inactive); in test [12], > 3.98 µM (inactive); in test [13], > 6.31 µM (inactive); in test [14], > 6.31 µM (inactive); in test [15] it was 0.1 µM (active). The Ki in [16] is > 3.16 µM (inactive); in test [17] it was > 3.98 µM (inactive); in [18], > 3.98 µM (inactive); on Activated CDC42 kinase 1, > 3.98 µM (inactive); in test [19], > 6.31 µM (inactive); in test [20], > 3.16 µM (inactive). Moreover, the Ki in test [21] was > 5.01 µM (inactive); in test [22], > 2.51 µM (inactive); in test [23], > 3.98 µM (inactive); in test [24] it was > 3.16 µM (inactive); in test [25], > 2.51 µM (inactive); in test [26], 3.16 µM (active). Besides, the Ki in [27] is > 5.01 µM (inactive); in [28], > 2.51 µM (inactive); in test [29], > 3.98 µM (inactive); in test [30], > 2.51 µM (inactive); in [31], > 2 µM (inactive); in test [32] it was > 5.01 µM (inactive). Further, the results for the Ki in test [33] and in test [34] were > 3.98 µM (inactive) and > 3.16 µM (inactive), respectively.
Broadly, the AC50 is the concentration giving half of the maximal activity seen. As for `Clc1ccc(CSc2nnc(-c3ccncc3)o2)c(Cl)c1`, the values for the concentration at half-maximal activity (AC50) in test [35], in test [36] and in [37] were 24 µM (active), 1.83 µM (active) and 8.31 µM (active), respectively.
Usually CC50 stands for the concentration that lowers cell viability or growth by half. Turning to `Cc1cccc(N2CCN(C(=O)c3ccc(CNc4c(N5CCC(C)CC5)c(=O)c4=O)cc3)CC2)c1C`, the half-maximal cytotoxic concentration (CC50) is > 30 µM (active) in [38], > 15 µM (active) in test [40] and 8.21 µM (active) in test [41]. For the same molecule, the IC50 in test [39] is > 25 µM (active).
